Results as given in PubChem BioAssay (NCI).
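Each compound was tested at five concentrations against cells in 96-well plates for 48 hours. Abbreviation: GI50, concentration required for 50% inhibition of growth. TGI: total growth inhibition.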

What was measured:
Assay in all cases: growth of human tumour cells (NCI), 48 h
[1] = tested on: 786-0 renal
[2] = tested on: A498 renal
[3] = tested on: A549 NSCLC
[4] = tested on: ACHN renal
[5] = tested on: BT-549 breast
[6] = tested on: CAKI-1 renal
[7] = tested on: CCRF-CEM leukemia
[8] = tested on: COLO 205 colon
[9] = tested on: DU-145 prostate
[10] = tested on: EKVX NSCLC
[11] = tested on: HCC-2998 colon
[12] = tested on: HCT-116 colon
[13] = tested on: HCT-15 colon
[14] = tested on: HL-60(TB) leukemia
[15] = tested on: HOP-62 NSCLC
[16] = tested on: HOP-92 NSCLC
[17] = tested on: HS 578T breast
[18] = tested on: HT29 colon
[19] = tested on: IGROV1 ovarian
[20] = tested on: K-562 leukemia
[21] = tested on: KM12 colon
[22] = tested on: LOX IMVI melanoma
[23] = tested on: M14 melanoma
[24] = tested on: MALME-3M melanoma
[25] = tested on: MCF7 breast
[26] = tested on: MDA-MB-231 breast
[27] = tested on: MDA-MB-435
[28] = tested on: MOLT-4 leukemia
[29] = tested on: NCI-H226 lung
[30] = tested on: NCI-H23 lung
[31] = tested on: NCI-H460 lung
[32] = tested on: NCI-H522 lung
[33] = tested on: NCI/ADR-RES ovarian
[34] = tested on: OVCAR-3 ovarian
[35] = tested on: OVCAR-4 ovarian
[36] = tested on: OVCAR-5 ovarian
[37] = tested on: OVCAR-8 ovarian
[38] = tested on: PC-3 prostate
[39] = tested on: RXF 393 renal
[40] = tested on: SF-268 CNS
[41] = tested on: SF-295 CNS
[42] = tested on: SF-539 CNS
[43] = tested on: SK-MEL-2 melanoma
[44] = tested on: SK-MEL-28 melanoma
[45] = tested on: SK-MEL-5 melanoma
[46] = tested on: SK-OV-3 ovarian
[47] = tested on: SN12C renal
[48] = tested on: SNB-19 CNS
[49] = tested on: SNB-75 CNS
[50] = tested on: SW-620 colon
[51] = tested on: T-47D breast
[52] = tested on: TK-10 renal
[53] = tested on: U251 CNS
[54] = tested on: UACC-257 melanoma
[55] = tested on: UACC-62 melanoma
[56] = tested on: UO-31 renal

O=C(N=Nc1c(O)[nH]c2ccccc12)c1oc2ccccc2c1CN1CCN(c2ccccc2)CC1
GI50 [1]: 865 nM
TGI [1]: 1840 nM
GI50 [2]: 1560 nM
TGI [2]: 8.87 µM
GI50 [3]: 1540 nM
TGI [3]: 8.21 µM
GI50 [4]: 1020 nM
TGI [4]: 2530 nM
GI50 [5]: 5.81 µM
TGI [5]: 21 µM
GI50 [6]: 2420 nM
TGI [6]: 9.61 µM
GI50 [7]: 1680 nM
TGI [7]: > 50 µM
GI50 [8]: 2770 nM
TGI [8]: > 50 µM
GI50 [9]: 1220 nM
TGI [9]: 3.27 µM
GI50 [10]: 1910 nM
TGI [10]: 10.3 µM
GI50 [11]: 6.83 µM
TGI [11]: 32 µM
GI50 [12]: 1550 nM
TGI [12]: 5.34 µM
GI50 [13]: 1640 nM
TGI [13]: 10.2 µM
GI50 [14]: 36.5 µM
TGI [14]: > 50 µM
GI50 [15]: 2700 nM
TGI [15]: 10.9 µM
GI50 [16]: 1250 nM
TGI [16]: 5.78 µM
GI50 [17]: 1690 nM
TGI [17]: 10.4 µM
GI50 [18]: 4.06 µM
TGI [18]: > 50 µM
GI50 [19]: 2410 nM
TGI [19]: 11.2 µM
GI50 [20]: 1980 nM
TGI [20]: > 50 µM
GI50 [21]: 7.47 µM
TGI [21]: > 50 µM
GI50 [22]: 2040 nM
TGI [22]: 7.84 µM
GI50 [23]: 2070 nM
TGI [23]: 8.83 µM
GI50 [24]: 724 nM
TGI [24]: 1700 nM
GI50 [25]: 1430 nM
TGI [25]: 5.89 µM
GI50 [26]: 1450 nM
TGI [26]: 4.58 µM
GI50 [27]: 2070 nM
TGI [27]: 8.26 µM
GI50 [28]: 1960 nM
TGI [28]: > 50 µM
GI50 [29]: 6.68 µM
TGI [29]: 20.5 µM
GI50 [30]: 2010 nM
TGI [30]: 8.73 µM
GI50 [31]: 1170 nM
TGI [31]: 2790 nM
GI50 [32]: 3.58 µM
TGI [32]: 19.3 µM
GI50 [33]: 1290 nM
TGI [33]: 4.68 µM
GI50 [34]: 1020 nM
TGI [34]: 1940 nM
GI50 [35]: 725 nM
TGI [35]: 1460 nM
GI50 [36]: 2540 nM
TGI [36]: 11.6 µM
GI50 [37]: 1660 nM
TGI [37]: 13.4 µM
GI50 [38]: 1590 nM
TGI [38]: 7.23 µM
GI50 [39]: 1010 nM
TGI [39]: 3.17 µM
GI50 [40]: 1970 nM
TGI [40]: 13.8 µM
GI50 [41]: 5.11 µM
TGI [41]: 12.5 µM
GI50 [42]: 2500 nM
TGI [42]: 8.53 µM
GI50 [43]: 5.46 µM
TGI [43]: 15.8 µM
GI50 [44]: 1540 nM
TGI [44]: 6.34 µM
GI50 [45]: 1490 nM
TGI [45]: 5.19 µM
GI50 [46]: 7.3 µM
TGI [46]: 15.7 µM
GI50 [47]: 1300 nM
TGI [47]: 3.9 µM
GI50 [48]: 1960 nM
TGI [48]: 8.5 µM
GI50 [49]: 1040 nM
TGI [49]: 4.48 µM
GI50 [50]: 1500 nM
TGI [50]: 7.47 µM
GI50 [51]: 1380 nM
TGI [51]: 5.41 µM
GI50 [52]: 1050 nM
TGI [52]: 3.58 µM
GI50 [53]: 1970 nM
TGI [53]: 8.67 µM
GI50 [54]: 4.03 µM
TGI [54]: 28.3 µM
GI50 [55]: 2380 nM
TGI [55]: 10 µM
GI50 [56]: 1010 nM
TGI [56]: 2940 nM
